Where two headings read alike, the source gives them in different places.
Legend:
[1] = Hepatic impairment study: atogepant plasma PK; assay type: in vivo, human; conditions: for AUC(0-t) / AUC(0-inf) / Cmax / Tmax / half-life / Vd/F: human, plasma, 60 mg; for Vd/F: read-out: Vz/F
Experimental: A multicenter, non-randomized, open-label, parallel-group, single-dose study was carried out to evaluate the PK, safety, and tolerability profiles of atogepant in participants with impaired hepatic function and matched healthy participants with normal hepatic function after a single 60-mg oral dose of atogepant. The primary outcome measures were PK parameters of atogepant derived from plasma concentrations. Safety measures were AEs, clinical laboratory determinations, vital sign parameters, electrocardiographic results, and physical examination findings. […] PK blood samples were collected for up to 72 hours after dose administration. The total duration of study participation for each participant was 5 days (Day −1 to Day 4), excluding the screening visit. […] Participants with moderate hepatic impairment were enrolled after 4 participants with mild hepatic impairment completed the study; participants with severe hepatic impairment were enrolled after 4 participants with moderate hepatic impairment completed the study. Participants with normal hepatic function were recruited after all patients with hepatic impairment were enrolled in the study. The safety and tolerability of atogepant was established in each group before the subsequent group was enrolled. Participants were enrolled into four groups: Group I (Mild Hepatic Impairment); Group II (Moderate Hepatic Impairment); Group III (Severe Hepatic Impairment); and Group IV (Normal Hepatic Impairment). Participants with normal hepatic function were recruited after the participants with hepatic impairment were enrolled in the study so that participants could be matched as closely as possible by age range, weight range, and gender among groups. Participants were matched specifically according to rage range, not exceeding 5 years between the means of the normal group and the 3 impaired hepatic function groups combined; weight range, which deviated <20% between the means of the normal group and the 3 impaired hepatic function groups combined; and gender, as much as possible to match the ratio of the normal group to the 3 impaired hepatic function groups combined. Participants received a single, oral, 60 mg tablet of atogepant. Each participant received only one dose of the study intervention. Participants received the atogepant tablet with 240 mL of water at the study center under fasted conditions. Following dose administration, participants continued their fast and remained seated upright and awake for 4 hours. Sampling for atogepant plasma concentrations was done starting on Day 1 at 0 hour (predose) and at 0.5, 1, 1.5, 2, 3, 4, 6, 8, 12, 16, 24, 36, 48, and 72 hours post dose.

[2] = Excretion after single oral dose of 14C-atogepant; assay type: in vivo, human; conditions: single oral dose of 50 mg 14C-atogepant, healthy male subjects
Experimental: The parent compound (atogepant) and a glucuronide conjugate metabolite (M23) were the most prevalent circulating components in human plasma. […] Following a single oral dose of 50 mg ^14C-atogepant to healthy male subjects, 42% and 5% of the dose was recovered as unchanged atogepant in feces and urine, respectively.

CYP2C9 = CYP2C9 (Homo sapiens, UniProt P11712); test: In vitro CYP inhibition; assay type: in vitro ADME; conditions: clinically relevant concentrations
CYP2C9, sequence (P11712 whole entry): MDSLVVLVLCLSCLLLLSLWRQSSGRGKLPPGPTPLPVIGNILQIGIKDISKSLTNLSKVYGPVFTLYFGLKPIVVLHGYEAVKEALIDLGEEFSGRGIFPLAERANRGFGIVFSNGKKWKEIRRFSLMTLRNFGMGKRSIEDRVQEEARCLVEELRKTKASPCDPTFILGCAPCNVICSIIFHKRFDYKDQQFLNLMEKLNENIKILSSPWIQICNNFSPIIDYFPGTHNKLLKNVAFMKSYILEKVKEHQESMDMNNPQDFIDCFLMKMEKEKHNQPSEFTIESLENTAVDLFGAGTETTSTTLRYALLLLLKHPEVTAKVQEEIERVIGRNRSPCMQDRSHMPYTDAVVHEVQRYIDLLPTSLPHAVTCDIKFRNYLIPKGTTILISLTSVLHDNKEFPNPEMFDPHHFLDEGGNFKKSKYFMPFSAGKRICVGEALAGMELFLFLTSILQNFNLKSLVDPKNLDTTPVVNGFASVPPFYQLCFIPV

CYP2D6 = CYP2D6 (Homo sapiens, UniProt P10635); test: In vitro CYP inhibition; assay type: in vitro ADME; conditions: clinically relevant concentrations
CYP2D6, sequence (P10635 whole entry): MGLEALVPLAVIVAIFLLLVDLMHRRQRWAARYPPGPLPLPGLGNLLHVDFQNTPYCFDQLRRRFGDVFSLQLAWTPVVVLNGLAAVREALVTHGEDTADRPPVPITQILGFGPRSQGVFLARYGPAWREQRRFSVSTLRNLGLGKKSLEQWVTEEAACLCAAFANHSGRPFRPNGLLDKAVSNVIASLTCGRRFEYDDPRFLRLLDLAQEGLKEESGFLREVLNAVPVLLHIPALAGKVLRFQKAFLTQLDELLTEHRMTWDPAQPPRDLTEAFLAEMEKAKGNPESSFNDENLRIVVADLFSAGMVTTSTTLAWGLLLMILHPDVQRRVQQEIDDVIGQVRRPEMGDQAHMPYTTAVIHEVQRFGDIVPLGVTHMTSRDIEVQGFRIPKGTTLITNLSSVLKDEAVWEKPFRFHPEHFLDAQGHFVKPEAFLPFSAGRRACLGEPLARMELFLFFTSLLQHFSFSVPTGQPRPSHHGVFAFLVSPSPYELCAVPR

BSEP = BSEP (Homo sapiens, UniProt O95342); test: Transporter inhibition; assay type: in vitro ADME; conditions: clinically relevant concentrations
BSEP, sequence (O95342 whole entry): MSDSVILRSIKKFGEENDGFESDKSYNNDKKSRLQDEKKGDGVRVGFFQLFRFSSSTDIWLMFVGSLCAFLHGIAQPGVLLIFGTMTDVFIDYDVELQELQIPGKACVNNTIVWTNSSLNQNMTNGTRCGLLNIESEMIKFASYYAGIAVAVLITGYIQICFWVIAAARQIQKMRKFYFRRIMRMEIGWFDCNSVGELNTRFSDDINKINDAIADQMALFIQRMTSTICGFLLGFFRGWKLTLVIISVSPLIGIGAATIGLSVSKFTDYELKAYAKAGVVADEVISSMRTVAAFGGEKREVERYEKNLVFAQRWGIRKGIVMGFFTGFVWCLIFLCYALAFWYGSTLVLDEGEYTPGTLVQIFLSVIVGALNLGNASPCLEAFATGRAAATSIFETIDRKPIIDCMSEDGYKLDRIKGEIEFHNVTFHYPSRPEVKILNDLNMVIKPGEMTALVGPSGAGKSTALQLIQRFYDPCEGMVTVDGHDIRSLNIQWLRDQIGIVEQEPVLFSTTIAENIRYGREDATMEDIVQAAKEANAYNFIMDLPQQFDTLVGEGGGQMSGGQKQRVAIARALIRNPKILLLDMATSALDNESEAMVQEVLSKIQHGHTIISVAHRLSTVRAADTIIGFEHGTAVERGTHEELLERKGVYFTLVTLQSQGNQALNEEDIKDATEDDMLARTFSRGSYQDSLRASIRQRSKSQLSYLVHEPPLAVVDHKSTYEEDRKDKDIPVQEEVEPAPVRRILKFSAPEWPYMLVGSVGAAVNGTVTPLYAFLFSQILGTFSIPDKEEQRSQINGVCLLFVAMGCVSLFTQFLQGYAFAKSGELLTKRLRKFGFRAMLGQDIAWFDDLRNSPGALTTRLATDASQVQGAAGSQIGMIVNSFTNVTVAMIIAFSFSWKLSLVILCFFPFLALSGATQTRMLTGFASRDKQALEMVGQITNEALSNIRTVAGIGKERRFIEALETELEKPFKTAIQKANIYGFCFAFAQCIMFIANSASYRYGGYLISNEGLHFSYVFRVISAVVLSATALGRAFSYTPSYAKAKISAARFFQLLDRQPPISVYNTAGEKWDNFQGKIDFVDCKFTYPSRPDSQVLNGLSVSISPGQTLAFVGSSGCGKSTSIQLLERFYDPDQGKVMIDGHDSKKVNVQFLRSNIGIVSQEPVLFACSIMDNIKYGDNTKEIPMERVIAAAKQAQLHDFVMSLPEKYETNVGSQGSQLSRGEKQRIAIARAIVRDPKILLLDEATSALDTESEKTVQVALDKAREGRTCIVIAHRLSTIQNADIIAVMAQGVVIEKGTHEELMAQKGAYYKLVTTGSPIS

MRP3 = MRP3 (Homo sapiens, UniProt O15438); test: Transporter inhibition; assay type: in vitro ADME; conditions: clinically relevant concentrations
MRP3, sequence (O15438 whole entry): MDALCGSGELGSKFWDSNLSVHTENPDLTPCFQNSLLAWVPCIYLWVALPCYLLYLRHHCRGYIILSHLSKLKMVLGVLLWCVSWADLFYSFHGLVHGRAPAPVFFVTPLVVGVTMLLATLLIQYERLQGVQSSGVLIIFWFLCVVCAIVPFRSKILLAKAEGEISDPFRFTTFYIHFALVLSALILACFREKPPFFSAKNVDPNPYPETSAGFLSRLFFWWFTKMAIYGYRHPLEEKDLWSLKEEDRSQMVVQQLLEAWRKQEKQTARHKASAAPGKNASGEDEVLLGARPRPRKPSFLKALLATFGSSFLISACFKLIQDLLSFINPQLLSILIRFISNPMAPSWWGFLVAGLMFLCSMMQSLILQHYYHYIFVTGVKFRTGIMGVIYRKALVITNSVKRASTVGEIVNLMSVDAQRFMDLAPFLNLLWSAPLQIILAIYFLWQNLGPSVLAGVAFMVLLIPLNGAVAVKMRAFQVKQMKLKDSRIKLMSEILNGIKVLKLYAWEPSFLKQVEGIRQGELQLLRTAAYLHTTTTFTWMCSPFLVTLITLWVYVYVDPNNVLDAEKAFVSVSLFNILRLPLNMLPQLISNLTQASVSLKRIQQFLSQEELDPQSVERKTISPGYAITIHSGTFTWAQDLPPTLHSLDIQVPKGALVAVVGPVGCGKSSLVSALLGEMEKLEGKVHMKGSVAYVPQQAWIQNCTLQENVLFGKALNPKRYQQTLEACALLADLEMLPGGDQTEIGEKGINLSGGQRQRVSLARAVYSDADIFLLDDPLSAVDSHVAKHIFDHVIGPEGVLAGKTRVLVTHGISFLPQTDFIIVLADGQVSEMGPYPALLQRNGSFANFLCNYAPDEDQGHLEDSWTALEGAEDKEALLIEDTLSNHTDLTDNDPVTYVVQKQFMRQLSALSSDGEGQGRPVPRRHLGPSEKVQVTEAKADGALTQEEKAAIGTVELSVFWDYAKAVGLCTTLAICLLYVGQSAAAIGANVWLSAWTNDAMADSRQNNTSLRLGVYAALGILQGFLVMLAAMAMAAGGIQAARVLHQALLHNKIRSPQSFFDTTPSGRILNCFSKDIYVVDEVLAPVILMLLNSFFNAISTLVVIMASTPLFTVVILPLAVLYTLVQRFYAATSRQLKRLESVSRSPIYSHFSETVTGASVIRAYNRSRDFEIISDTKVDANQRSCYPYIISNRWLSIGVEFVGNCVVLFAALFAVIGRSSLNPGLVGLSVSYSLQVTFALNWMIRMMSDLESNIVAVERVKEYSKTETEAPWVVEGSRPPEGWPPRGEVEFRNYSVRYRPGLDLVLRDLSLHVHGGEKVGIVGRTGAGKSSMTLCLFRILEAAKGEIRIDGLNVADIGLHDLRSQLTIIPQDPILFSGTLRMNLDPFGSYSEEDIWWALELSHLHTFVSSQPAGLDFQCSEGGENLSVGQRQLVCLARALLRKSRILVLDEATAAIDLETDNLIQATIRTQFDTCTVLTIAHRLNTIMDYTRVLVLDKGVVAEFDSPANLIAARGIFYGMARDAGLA

[3] = po, mild hepatic impairment, single 60 mg oral dose
[4] = po, moderate hepatic impairment, single 60 mg oral dose
[5] = po, normal hepatic function, single 60 mg oral dose
[6] = po, severe hepatic impairment, single 60 mg oral dose
[7] = mild hepatic impairment vs normal hepatic function
[8] = mild hepatic impairment, single 60 mg oral dose
[9] = moderate hepatic impairment vs normal hepatic function
[10] = moderate hepatic impairment, single 60 mg oral dose
[11] = normal hepatic function, single 60 mg oral dose
[12] = severe hepatic impairment vs normal hepatic function
[13] = severe hepatic impairment, single 60 mg oral dose
[14] = All participants (N = 32), Treatments A, B1, B2
[15] = Treatment A: atogepant 60 mg alone (N = 32)
[16] = Treatment B1: atogepant 60 mg + rifampin 600 mg Day 7, rifampin Days 8-11 (N = 31)
[17] = Treatment B2: atogepant 60 mg + rifampin 600 mg Day 12, rifampin Day 13 (N = 31)
[18] = after Treatment B1 (atogepant + rifampin)
[19] = during the study, all treatments
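For Deaths in this document: safety population of participants given at least one dose, adverse events recorded through clinical assessment across the whole study.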
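For TEAE leading to treatment discontinuation in this document: safety population of participants given at least one dose, adverse events recorded through clinical assessment across the whole study.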
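For Treatment-Emergent Serious Adverse Events (TESAE) in this document: safety population of participants given at least one dose, adverse events recorded through clinical assessment across the whole study.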
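For Treatment-emergent adverse events (TEAE) in this document: safety population of participants given at least one dose, adverse events recorded through clinical assessment across the whole study.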

C[C@@H]1[C@H](c2c(F)ccc(F)c2F)C[C@H](NC(=O)c2cnc3c(c2)C[C@@]2(C3)C(=O)Nc3ncccc32)C(=O)N1CC(F)(F)F [atogepant, (3′S)-N-[(3S,5S,6R)-6-methyl-2-oxo-1-(2,2,2-trifluoroethyl)-5-(2,3,6-trifluorophenyl)piperidin-3-yl]-2′-oxo-1′,2′,5,7-tetrahydrospiro[cyclopenta[b]pyridine-6,3′-pyrrolo[2,3-b]pyridine]-3-carboxamide]
AUC(0-t) ([1]; oral, mild hepatic impairment, read-out: AUC0-t Geometric Least Squares Mean, Test): 3250 ng·h/mL
AUC(0-inf) ([1]; oral, mild hepatic impairment, read-out: AUC0-∞ Geometric Least Squares Mean, Test): 3270 ng·h/mL
Cmax ([1]; oral, mild hepatic impairment, read-out: Cmax Geometric Least Squares Mean, Test): 587 ng/mL
AUC(0-t) ([1]; oral, moderate hepatic impairment, read-out: AUC0-t Geometric Least Squares Mean, Test): 2980 ng·h/mL
AUC(0-inf) ([1]; oral, moderate hepatic impairment, read-out: AUC0-∞ Geometric Least Squares Mean, Test): 3030 ng·h/mL
Cmax ([1]; oral, moderate hepatic impairment, read-out: Cmax Geometric Least Squares Mean, Test): 475 ng/mL
AUC(0-t) ([1]; oral, normal hepatic function, read-out: AUC0-t Geometric Least Squares Mean, Reference): 2610 ng·h/mL
AUC(0-inf) ([1]; oral, normal hepatic function, read-out: AUC0-∞ Geometric Least Squares Mean, Reference): 2630 ng·h/mL
Cmax ([1]; oral, normal hepatic function, read-out: Cmax Geometric Least Squares Mean, Reference): 539 ng/mL
AUC(0-t) ([1]; oral, severe hepatic impairment, read-out: AUC0-t Geometric Least Squares Mean, Test): 3600 ng·h/mL
AUC(0-inf) ([1]; oral, severe hepatic impairment, read-out: AUC0-∞ Geometric Least Squares Mean, Test): 3630 ng·h/mL
Cmax ([1]; oral, severe hepatic impairment, read-out: Cmax Geometric Least Squares Mean, Test): 515 ng/mL
Tmax ([1]; po, mild hepatic impairment vs normal hepatic function, read-out: difference in median Tmax): 0 h
half-life [1, 3]: 8.7 ± 4.06 h
AUC(0-t) ([1]; po, mild hepatic impairment, single 60 mg oral dose, read-out: AUC0-t): 3470 ± 1420 ng·h/mL
AUC(0-inf) ([1]; po, mild hepatic impairment, single 60 mg oral dose, read-out: AUC0-∞): 3500 ± 1430 ng·h/mL
Cmax ([1]; po, mild hepatic impairment, single 60 mg oral dose, read-out: Cmax): 666 ± 372 ng/mL
Tmax ([1]; po, mild hepatic impairment, single 60 mg oral dose, read-out: Tmax, median (range)): 1.76 h
Vd/F [1, 3]: 249 ± 161 L
Tmax ([1]; po, moderate hepatic impairment vs normal hepatic function, read-out: difference in median Tmax): 0.25 h
half-life [1, 4]: 11.9 ± 7.6 h
AUC(0-t) ([1]; po, moderate hepatic impairment, single 60 mg oral dose, read-out: AUC0-t): 3270 ± 1690 ng·h/mL
AUC(0-inf) ([1]; po, moderate hepatic impairment, single 60 mg oral dose, read-out: AUC0-∞): 3310 ± 1680 ng·h/mL
Cmax ([1]; po, moderate hepatic impairment, single 60 mg oral dose, read-out: Cmax): 529 ± 227 ng/mL
Tmax ([1]; po, moderate hepatic impairment, single 60 mg oral dose, read-out: Tmax, median (range)): 1.5 h
Vd/F [1, 4]: 404 ± 406 L
half-life [1, 5]: 9.4 ± 3.24 h
AUC(0-t) ([1]; po, normal hepatic function, single 60 mg oral dose, read-out: AUC0-t): 2760 ± 919 ng·h/mL
AUC(0-inf) ([1]; po, normal hepatic function, single 60 mg oral dose, read-out: AUC0-∞): 2780 ± 924 ng·h/mL
Cmax ([1]; po, normal hepatic function, single 60 mg oral dose, read-out: Cmax): 589 ± 248 ng/mL
Tmax ([1]; po, normal hepatic function, single 60 mg oral dose, read-out: Tmax, median (range)): 1.75 h
Vd/F [1, 5]: 301 ± 77 L
Tmax ([1]; po, severe hepatic impairment vs normal hepatic function, read-out: difference in median Tmax): 0.75 h
half-life [1, 6]: 7.54 ± 2.95 h
AUC(0-t) ([1]; po, severe hepatic impairment, single 60 mg oral dose, read-out: AUC0-t): 3800 ± 1400 ng·h/mL
AUC(0-inf) ([1]; po, severe hepatic impairment, single 60 mg oral dose, read-out: AUC0-∞): 3840 ± 1440 ng·h/mL
Cmax ([1]; po, severe hepatic impairment, single 60 mg oral dose, read-out: Cmax): 525 ± 197 ng/mL
Tmax ([1]; po, severe hepatic impairment, single 60 mg oral dose, read-out: Tmax, median (range)): 1 h
Vd/F [1, 6]: 177 ± 47.5 L
higher AUC (total atogepant exposure increase) ([1]; mild hepatic impairment (Child-Pugh Class A) vs normal hepatic function): 24%
AUC0-t Ratio of Geometric Means Test/Reference [1, 7]: 124.40
AUC0-∞ Ratio of Geometric Means Test/Reference [1, 7]: 124.31
Cmax Ratio of Geometric Means Test/Reference [1, 7]: 108.97
change in maximum plasma concentration [1, 7]: +9%
higher Cmax [1, 7]: 9%
AUC % [1, 8]: 0.73 ± 0.42%
CL/F [1, 8]: 19.42 ± 6.60 L/h
λz [1, 8]: 0.0906 ± 0.0300 h⁻¹
change in the PK of atogepant ([1]; mild, moderate, or severe hepatic impairment): no clinically relevant change
higher AUC (total atogepant exposure increase) ([1]; moderate hepatic impairment (Child-Pugh Class B) vs normal hepatic function): 15%
AUC0-t Ratio of Geometric Means Test/Reference [1, 9]: 113.96
AUC0-∞ Ratio of Geometric Means Test/Reference [1, 9]: 115.00
Cmax Ratio of Geometric Means Test/Reference [1, 9]: 88.17
change in maximum plasma concentration [1, 9]: −12%
lower Cmax [1, 9]: 12%
AUC % [1, 10]: 1.70 ± 1.44%
CL/F [1, 10]: 21.33 ± 8.06 L/h
λz [1, 10]: 0.0781 ± 0.0431 h⁻¹
AUC % [1, 11]: 0.81 ± 0.23%
CL/F [1, 11]: 24.20 ± 9.42 L/h
λz [1, 11]: 0.0819 ± 0.0289 h⁻¹
increase in AUC (total atogepant exposure increase) ([1]; severe hepatic impairment (Child-Pugh Class C) vs normal hepatic function): 38%
AUC0-t Ratio of Geometric Means Test/Reference [1, 12]: 137.88
AUC0-∞ Ratio of Geometric Means Test/Reference [1, 12]: 137.97
Cmax Ratio of Geometric Means Test/Reference [1, 12]: 95.71
change in maximum plasma concentration [1, 12]: −4%
decrease in Cmax [1, 12]: 4%
AUC % [1, 13]: 0.87 ± 0.65%
CL/F [1, 13]: 17.33 ± 5.40 L/h
λz [1, 13]: 0.0998 ± 0.0242 h⁻¹
dose recovered as unchanged atogepant in feces [2]: 42%
dose recovered as unchanged atogepant in urine [2]: 5%
inhibition of CYP2C9 (CYP2C9): not an inhibitor
inhibition of CYP2D6 (CYP2D6): not an inhibitor
inhibition of BSEP (BSEP): not an inhibitor
inhibition of MRP3 (MRP3): not an inhibitor
Deaths [14]: 0 n (%)
TEAE leading to treatment discontinuation [14]: 0 n (%)
Treatment-Emergent Serious Adverse Events (TESAE) [14]: 0 n (%)
Treatment-emergent adverse events (TEAE) [14]: 11 (34.4) n (%)
Deaths [15]: 0 n (%)
TEAE leading to treatment discontinuation [15]: 0 n (%)
Treatment-Emergent Serious Adverse Events (TESAE) [15]: 0 n (%)
Treatment-emergent adverse events (TEAE) [15]: 0 n (%)
Deaths [16]: 0 n (%)
TEAE leading to treatment discontinuation [16]: 0 n (%)
Treatment-Emergent Serious Adverse Events (TESAE) [16]: 0 n (%)
Treatment-emergent adverse events (TEAE) [16]: 8 (25.8) n (%)
Deaths [17]: 0 n (%)
TEAE leading to treatment discontinuation [17]: 0 n (%)
Treatment-Emergent Serious Adverse Events (TESAE) [17]: 0 n (%)
Treatment-emergent adverse events (TEAE) [17]: 5 (16.1) n (%)
participants with at least one treatment-related TEAE [18]: 12.9%
participants with headache (most common TEAE) [18]: 6.5%
participants with at least one treatment-related TEAE (after Treatment B2 (atogepant + rifampin)): 6.5%
changes in clinical laboratory test results, vital signs, ECG findings (atogepant alone or with rifampin): no notable changes from baseline
tolerability (atogepant and rifampin, healthy participants): well tolerated
participants with at least one treatment-related TEAE [19]: 15.6%
participants with mild TEAEs [19]: 31.3%
participants with moderate TEAEs (during the study, after Treatment B1): 3.1%
participants with treatment-related nausea (during the study, one after B1, one after B2): 6.3%

From patent US12350259B2, “Methods of treating migraine” (Allergan Pharmaceuticals International Limited, priority 2021, dated 2025)
